Here are results for 22 molecules from ChEMBL document CHEMBL1136169, “Design and synthesis of potent and selective macrocyclic thrombin inhibitors” (Bioorg Med Chem Lett, 2003).

In assay [1] the target is Prothrombin (Homo sapiens, UniProt P00734). As to the kind of experiment: Inhibitory activity against thrombin IIa.
The target of assay [2] is Tissue-type plasminogen activator (Homo sapiens, UniProt P00750). As to the kind of experiment: Inhibitory activity against Tissue plasminogen activator.
Assay [3] concerns the target Serine protease 1 (Homo sapiens, UniProt P07477). Put plainly: Inhibitory activity against human trypsin.
Assay [4] is filed under the species Homo sapiens. Put plainly: Concentration of inhibitor in human plasma required to double the activated partial thromboplastin time. The format is functional.

Chain of Tissue-type plasminogen activator (P00750 whole entry): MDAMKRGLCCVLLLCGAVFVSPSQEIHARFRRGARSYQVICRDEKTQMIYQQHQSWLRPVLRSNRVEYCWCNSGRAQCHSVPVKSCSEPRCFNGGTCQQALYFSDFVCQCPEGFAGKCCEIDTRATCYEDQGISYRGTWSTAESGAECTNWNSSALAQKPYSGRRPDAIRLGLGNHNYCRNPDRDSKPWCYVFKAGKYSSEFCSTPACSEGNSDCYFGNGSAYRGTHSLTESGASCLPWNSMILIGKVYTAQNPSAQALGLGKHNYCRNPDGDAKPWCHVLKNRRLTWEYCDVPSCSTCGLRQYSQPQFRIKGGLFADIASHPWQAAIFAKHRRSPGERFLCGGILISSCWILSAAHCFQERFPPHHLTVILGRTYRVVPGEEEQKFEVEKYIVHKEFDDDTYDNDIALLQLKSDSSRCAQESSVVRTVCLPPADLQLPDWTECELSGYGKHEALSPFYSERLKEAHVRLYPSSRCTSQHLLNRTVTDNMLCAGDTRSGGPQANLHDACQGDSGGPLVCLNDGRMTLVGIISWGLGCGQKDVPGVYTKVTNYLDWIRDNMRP
Chain of Serine protease 1 (P07477 whole entry): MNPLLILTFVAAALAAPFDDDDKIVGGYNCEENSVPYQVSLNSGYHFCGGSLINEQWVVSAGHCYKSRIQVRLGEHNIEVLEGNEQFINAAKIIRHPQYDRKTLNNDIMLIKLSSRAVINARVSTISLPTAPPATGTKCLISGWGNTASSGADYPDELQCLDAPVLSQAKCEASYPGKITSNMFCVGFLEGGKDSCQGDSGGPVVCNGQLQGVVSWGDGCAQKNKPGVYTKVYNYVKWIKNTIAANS

On to `O=C1COc2ccc(Cl)cc2CNC(=O)[C@@H]2CCCN2C(=O)[C@@H](C2CCCCC2)NC(=O)CN1`, for which the Ki is 2.9 nM in assay [1], 5600 nM in assay [2] and 9300 nM in assay [3]. In addition, the “2*APTT” value in assay [4] came to 0.69 µM.
In the case of `O=C1Cn2c(Cl)cnc(c2=O)N[C@@H](Cc2ccccc2)CNCCCCOc2ccc(Cl)cc2CN1`, the inhibitory constant (Ki) was determined as 0.2 nM in assay [1], 20 nM in assay [2] and 90 nM in assay [3]. Further, in assay [4], the “2*APTT” value is 0.74 µM.
`O=C1Cn2c(Cl)cnc(c2=O)N[C@@H](Cc2ccccc2)CNCCOc2ccc(Cl)cc2CN1` showed a Ki in assay [1] of 560 nM.
For `O=C1Cn2c(Cl)cnc(c2=O)N[C@@H](Cc2ccccc2)NCCCCCCOc2ccc(Cl)cc2CN1`, the results for the inhibition constant Ki in assay [1] and in assay [3] were 0.13 nM and 240 nM, respectively. Besides, the “2*APTT” value in assay [4] turned out to be 3.17 µM.
`O=C1Cn2c(Cl)cnc(c2=O)N[C@@H](Cc2ccccc2)CNCCCNCCc2ccccc2CN1`: the inhibitory constant (Ki) in assay [2] was found to be 640 nM; in assay [3], 2100 nM. Moreover, the “2*APTT” value in assay [4] came to 0.47 µM.
`O=C1Cn2c(Cl)cnc(c2=O)N[C@@H](Cc2ccccc2)CNCCCCCOc2ccccc2CN1`: the inhibition constant (Ki) was 2.5 nM in assay [1], 360 nM in assay [2] and 6700 nM in assay [3]. Also, the “2*APTT” value in assay [4] amounted to 0.6 µM.
On to `O=C1Cn2c(Cl)cnc(c2=O)N[C@@H](Cc2ccccc2)CNCCCCNCc2ccccc2CN1`, for which the Ki in assay [1] came out at 0.51 nM; in assay [2] it was 165000 nM; in assay [3] it was 41000 nM. Further, the “2*APTT” value in assay [4] is 0.43 µM.
In turn, `O=C1Cn2c(Cl)cnc(c2=O)N[C@@H](Cc2ccccc2)CNCCCOc2ccc(Cl)cc2CN1` came in with a Ki in assay [1] of 26 nM.
The molecule `CCN(CC)C(=O)CN[C@H](C(=O)N1CCC[C@H]1C(=O)NCc1cc(Cl)ccc1Cl)C1CCCCC1` gave an inhibition constant Ki in assay [1] of 0.31 nM.
In the case of `O=C1Cn2c(Cl)cnc(c2=O)N[C@@H](Cc2ccccc2)CNCCCCCOc2ccc(Cl)cc2CN1`, the inhibitory constant (Ki) in assay [1] was determined as 0.05 nM; in assay [2], 6 nM; in assay [3], 80 nM. Also, the “2*APTT” value in assay [4] was 1.22 µM.
Consider `CN1CCCCCOc2ccc(Cl)cc2CNC(=O)Cn2c(Cl)cnc(c2=O)N[C@@H](Cc2ccccc2)C1`, for which the inhibition constant Ki in assay [1] stood at 0.02 nM; in assay [2], 3 nM; in assay [3], 40 nM. In addition, the “2*APTT” value in assay [4] is 1.89 µM.
Consider `O=C1COc2ccc(Cl)cc2CNC(=O)[C@@H]2CCCN2C(=O)[C@@H](C2CCCCC2)NC(=O)CCCN1`, for which the Ki turned out to be 0.4 nM in assay [1], 4300 nM in assay [2] and 5000 nM in assay [3]. The “2*APTT” value in assay [4] stood at 0.31 µM.
As to `O=C1Cn2c(Cl)cnc(c2=O)N[C@@H](Cc2ccccc2)CNC(=O)OCCCCOc2ccc(Cl)cc2CN1`, the Ki was 0.63 nM in assay [1] and 4000 nM in assay [3]. Besides, the “2*APTT” value in assay [4] was determined as 1.97 µM.
Consider `O=C1COc2ccc(Cl)cc2CNC(=O)[C@@H]2CCCN2C(=O)C(C2CCCCC2)NC(=O)CCN1` (some centres undefined), for which the Ki amounted to 8900 nM in assay [2] and 21500 nM in assay [3]. Moreover, the “2*APTT” value in assay [4] stood at 0.36 µM.
`N[C@H](C(=O)N1CCC[C@H]1C(=O)NCc1cc(Cl)ccc1Cl)C1CCCCC1` returned a Ki in assay [1] of 5 nM.
Consider `O=C1Cn2c(Cl)cnc(c2=O)N[C@@H](Cc2ccccc2)CNC(=O)OC/C=C/COc2ccc(Cl)cc2CN1`, for which the inhibitory constant (Ki) in assay [1] stood at 0.17 nM; in assay [2] it was 480 nM; in assay [3], 580 nM. Besides, the “2*APTT” value in assay [4] was found to be 0.87 µM.
With `O=C1Cn2c(Cl)cnc(c2=O)N[C@@H](Cc2ccccc2)CNC(=O)OC/C=C\COc2ccc(Cl)cc2CN1`, the inhibition constant Ki in assay [1] turned out to be 0.06 nM; in assay [2], 6 nM; in assay [3], 110 nM. Moreover, the “2*APTT” value in assay [4] came out at 0.78 µM.
Consider `O=C1Cn2c(Cl)cnc(c2=O)N[C@@H](Cc2ccccc2)CNCCOCCOc2ccc(Cl)cc2CN1`, for which the Ki in assay [1] came out at 0.05 nM; in assay [2], 150 nM; in assay [3] it was 110 nM. For the same molecule, the “2*APTT” value in assay [4] was 0.56 µM.
For `O=C1COc2ccc(Cl)cc2CNC(=O)[C@@H]2CCCN2C(=O)[C@@H](C2CCCCC2)NC(=O)CCCCN1` the same measures were 1.3 nM, 48000 nM, 7700 nM and 0.36 µM.
On to `O=C1Cn2c(Cl)cnc(c2=O)N[C@@H](Cc2ccccc2)CNCCOCCOc2ccccc2CN1`, for which the inhibitory constant (Ki) in assay [1] was determined as 2.1 nM; in assay [2], 3200 nM; in assay [3] it was 4600 nM. Also, the “2*APTT” value in assay [4] came to 0.39 µM.
For the molecule `CN1CCOc2ccccc2CNC(=O)Cn2c(Cl)cnc(c2=O)N[C@@H](Cc2ccccc2)CNC(=O)C1`, the figures for the Ki in assay [1], in assay [2] and in assay [3] were 3 nM, 3900 nM and 17000 nM, respectively. For the same molecule, the “2*APTT” value in assay [4] turned out to be 0.5 µM.
`CCNC(=O)Oc1ccc(Cl)cc1CNC(=O)[C@@H]1CCCN1C(=O)[C@@H](N)C1CCCCC1` showed a Ki in assay [1] of 0.74 nM.
